Experimental data as given in patent publication US20090069304A1, “MMP-13 SELECTIVE INHIBITOR” (SHIONOGI & CO., LTD., priority 2006, published 2009).

Assays:
MMP-13 = target: T1, MMP-13 (Homo sapiens, UniProt P45452); assay: Enzyme inhibiting activity of MMPs (fluorogenic peptide substrate), MMP-13; assay type: biochemical; conditions: human MMP-13, proenzyme activated with APMA; substrate MOCAc-Pro-Leu-Gly-Leu-A2Pr(DNP)-Ala-Arg-NH2
T1 construct: purchased Calbiochem (EMD/MERCK Biosciences)
Protocol: (§1) Various human MMPs (MMP-2, MMP-9 and MMP-13) were purchased from Calbiochem (EMD/MERCK Biosciences).
Since the purchased MMP-13 was Proenzyme, the activated one was used, which was incubated at 37° C. for 2 hours after the successive addition of an assay buffer (containing 50 mM Tris-HCl (pH7.6), 0.3 M NaCl, 10 mM CaCl2, 0.005% Brij35) and APMA (final concentration 1 mM) to the enzyme solution.
(§2) The enzyme activity of MMPs was measured according to the method described in C. Graham Knight, Frances Willenbrock and Gillian Murphy: A novel coumarin-labelled peptide for sensitive continuous assays of the matrix metalloproteinases: FEBS LETT., 296, (1992), 263-266. As a substrate, MOCAc-Pro-Leu-Gly-Leu-A2Pr(DNP)-Ala-Arg-NH2 (Peptide Institute, Inc. Osaka, Japan) was used, and the following four assays are performed per compound (inhibitor) for measuring the inhibiting activity.
(§3) (A) Substrate (synthetic substrate), enzyme (MMPs), inhibitor (B) Substrate (synthetic substrate), inhibitor (C) Substrate (synthetic substrate), enzyme (MMPs) (D) Substrate (synthetic substrate) In each assay, the fluorescent intensity was measured, and inhibition (%) was calculated by the following equation.
(§4) Inhibition(%)=[I−(A−B)/(C−D)]×100
(§5) IC50 indicates a concentration at which inhibition (%) is 50%.

MMP-2 = target: T2, MMP-2 (Homo sapiens, UniProt P08253); assay: Enzyme inhibiting activity of MMPs (fluorogenic peptide substrate), MMP-2; assay type: biochemical; conditions: human MMP-2; substrate MOCAc-Pro-Leu-Gly-Leu-A2Pr(DNP)-Ala-Arg-NH2
T2 construct: purchased Calbiochem (EMD/MERCK Biosciences)
T2 sequence (P08253 110-660): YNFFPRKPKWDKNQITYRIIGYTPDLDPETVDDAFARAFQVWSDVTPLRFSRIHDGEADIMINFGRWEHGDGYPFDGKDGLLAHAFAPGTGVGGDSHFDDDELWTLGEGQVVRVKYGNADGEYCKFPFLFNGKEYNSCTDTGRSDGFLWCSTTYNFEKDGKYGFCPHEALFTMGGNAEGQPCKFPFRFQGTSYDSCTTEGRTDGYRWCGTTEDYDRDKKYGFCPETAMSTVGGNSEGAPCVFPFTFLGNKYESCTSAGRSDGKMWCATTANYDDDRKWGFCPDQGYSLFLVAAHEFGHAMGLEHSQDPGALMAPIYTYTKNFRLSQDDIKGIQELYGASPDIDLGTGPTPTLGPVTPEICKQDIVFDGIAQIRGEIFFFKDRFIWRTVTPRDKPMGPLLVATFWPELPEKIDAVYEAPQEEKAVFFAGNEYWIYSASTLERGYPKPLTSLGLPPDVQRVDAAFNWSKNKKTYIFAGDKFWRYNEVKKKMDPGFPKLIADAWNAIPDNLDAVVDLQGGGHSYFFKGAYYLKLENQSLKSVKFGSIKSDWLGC
Protocol: as §1, §2, §3, §4, §5

MMP-9 = target: T3, MMP-9 (Homo sapiens, UniProt P14780); assay: Enzyme inhibiting activity of MMPs (fluorogenic peptide substrate), MMP-9; assay type: biochemical; conditions: human MMP-9; substrate MOCAc-Pro-Leu-Gly-Leu-A2Pr(DNP)-Ala-Arg-NH2
T3 construct: purchased Calbiochem (EMD/MERCK Biosciences)
T3 sequence (P14780 94-707): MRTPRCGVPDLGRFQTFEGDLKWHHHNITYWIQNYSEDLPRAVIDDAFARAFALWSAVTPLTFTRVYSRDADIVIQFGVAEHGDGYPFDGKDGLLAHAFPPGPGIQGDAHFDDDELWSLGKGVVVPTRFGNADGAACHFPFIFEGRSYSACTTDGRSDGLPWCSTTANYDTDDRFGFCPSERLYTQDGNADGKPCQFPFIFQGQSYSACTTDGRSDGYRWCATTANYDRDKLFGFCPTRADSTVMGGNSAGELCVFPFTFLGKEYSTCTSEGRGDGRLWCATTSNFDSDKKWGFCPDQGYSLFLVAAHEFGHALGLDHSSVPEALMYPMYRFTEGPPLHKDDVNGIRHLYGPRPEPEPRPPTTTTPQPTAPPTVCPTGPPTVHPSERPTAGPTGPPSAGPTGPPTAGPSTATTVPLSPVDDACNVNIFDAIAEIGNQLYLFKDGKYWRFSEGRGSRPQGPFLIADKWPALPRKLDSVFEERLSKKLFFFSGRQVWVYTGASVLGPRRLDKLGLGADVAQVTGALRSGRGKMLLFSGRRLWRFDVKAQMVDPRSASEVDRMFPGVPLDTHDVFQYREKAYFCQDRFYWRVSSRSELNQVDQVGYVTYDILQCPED
Protocol: as §1, §2, §3, §4, §5

Row | IC50 (MMP-13) | IC50 (MMP-2) | IC50 (MMP-9) | melting point | Structure (SMILES)
1 | 0.0685 µM | 1 to 10 µM | > 10 µM |  | C[C@@H](NS(=O)(=O)N1CCN(c2ccc(C#Cc3ccc4cc(OCC5CC5)ccc4c3)cc2)CC1)C(=O)O [Compound I-32, (R)-2-{4-[4-(6-cyclopropylmethoxy-naphthalen-2-ylethynyl)-phenyl]-piperazine-1-sulfonylamino)-propionic acid]
2 | 0.131 µM | > 10 µM | > 10 µM |  | COc1ccc2cc(C#Cc3ccc(N4CCN(S(=O)(=O)N[C@H](C)C(=O)O)C(C)C4)cc3)ccc2c1 (some centres unmarked) [Compound I-47]
3 | 0.0771 µM | > 10 µM | > 10 µM |  | CCC[C@H](NS(=O)(=O)N1CCN(c2ccc(C#Cc3ccc4cc(OCC)ccc4c3)cc2)CC1)C(=O)O [Compound I-28, (S)-2-{4-[4-(6-ethoxy-naphthalen-2-ylethynyl)-phenyl]-piperazine-1-sulfonylamino)-pentanoic acid]
4 | 0.0945 µM | 1 to 10 µM | > 10 µM |  | CCC[C@H](NS(=O)(=O)N1CCC(c2ccc(CCc3ccc4cc(OC)ccc4c3)cc2)CC1)C(=O)O [Compound I-20, (S)-2-(4-{4-[2-(6-methoxy-naphthalen-2-yl)-ethyl]-phenyl}-piperidine-1-sulfonylamino]-pentanoic acid]
5 | 0.126 µM | 1 to 10 µM | > 10 µM |  | COc1ccc2cc(COc3ccc(N4CCN(S(=O)(=O)N[C@@H](C)C(=O)O)CC4)cc3)ccc2c1 [Compound I-15, (S)-2-{4-[4-(6-methoxy-naphthalen-2-ylmethoxy)-phenyl]-piperazine-1-sulfonylamino}-propionic acid]
6 | 0.121 µM | > 10 µM | > 10 µM | 187 to 190 °C (dec.) | CCC[C@H](NS(=O)(=O)N1CCN(c2ccc(C#Cc3ccc4cc(OC)ccc4c3)cc2)CC1)C(=O)O [Compound I-1, (S)-2-{4-[4-(6-methoxy-naphthalen-2-ylethynyl)-phenyl]-piperazine-1-sulfonylamino}-pentanoic acid]
7 | 0.176 µM | > 10 µM | > 10 µM |  | COc1ccc2cc(/C=C/c3ccc(N4CCN(S(=O)(=O)N[C@@H](C)C(=O)O)CC4)cc3)ccc2c1 [Compound I-21, (S)-2-(4-{4-[(E)-2-(6-methoxy-naphthalen-2-yl)-vinyl]-phenyl}-piperazine-1-sulfonylamino}-propionic acid]
8 | 0.145 µM | > 10 µM | > 10 µM |  | CCC[C@H](NS(=O)(=O)N1CCC(c2ccc(/C=C/c3ccc4ccccc4c3)cc2)CC1)C(=O)O [Compound I-25]
9 | 0.0965 µM | 1 to 10 µM | > 10 µM |  | CCC[C@H](NS(=O)(=O)N1CCN(c2ccc(/C=C/c3ccc4cc(OCOC)ccc4c3)cc2)CC1)C(=O)O [Compound I-49, (S)-2-(4-{4-[(E)-2-(6-methoxymethoxy-naphthalen-2-yl)-vinyl]-phenyl}-piperazine-1-sulfonylamino)-pentanoic acid]
10 | 0.0443 µM | > 10 µM | > 10 µM |  | CCC[C@H](NS(=O)(=O)N1CCN(c2ccc(/C=C/c3ccc4ccccc4c3)cc2)CC1)C(=O)O [Compound I-13]
11 |  |  |  | 167 to 171 °C | C[C@@H](NS(=O)(=O)N1CCN(c2ccc(OCc3ccc4ccccc4c3)cc2)CC1)C(=O)O [Compound I-2, (R)-2-{4-[4-(naphthalen-2-ylmethoxy)-phenyl]-piperazine-1-sulfonylamino}-propionic acid]
12 | 0.0396 µM | > 10 µM | > 10 µM |  | CON=Cc1ccc2cc(C#Cc3ccc(N4CCN(S(=O)(=O)N[C@H](C)C(=O)O)CC4)cc3)ccc2c1 [Compound I-66, (R)-2-(4-{4-[6-(methoxyimino-methyl)-naphthalen-2-ylethynyl]-phenyl)-piperazine-1-sulfonylamino]-propionic acid]
13 | 0.186 µM | 1 to 10 µM | > 10 µM |  | COc1ccc2cc(CNc3ccc(N4CCN(S(=O)(=O)N[C@H](C)C(=O)O)CC4)cc3)ccc2c1 [Compound I-45, (R)-2-(4-{4-[4-(6-methoxy-naphthalen-2-ylmethyl)-amino]-phenyl}-piperazine-1-sulfonylamino)-propionic acid]
14 | 0.142 µM | > 10 µM | > 10 µM |  | COc1ccc2cc(COc3ccc(C4CCN(S(=O)(=O)NC(C)C(=O)O)CC4)cc3)ccc2c1 (centres unmarked) [Compound I-19]
15 | 0.0549 µM | > 10 µM | > 10 µM |  | COc1ccc2cc(C#Cc3ccc(C4CCN(S(=O)(=O)N[C@H](C)C(=O)O)CC4)cc3)ccc2c1 [Compound I-11, (R)-2-{4-[4-(6-methoxy-naphthalen-2-ylethynyl)-phenyl]-piperidine-1-sulfonylamino}-propionic acid]
16 | 0.11 µM | > 10 µM | > 10 µM |  | COc1ccc2cc(C#Cc3ccc(N4CCN(S(=O)(=O)N[C@H](C(=O)O)C(C)C)CC4)cc3)ccc2c1 [Compound I-5, (S)-2-{4-[4-(6-methoxy-naphthalen-2-ylethynyl)-phenyl]-piperazine-1-sulfonylamino}-3-methyl-butanoic acid]
17 | 0.0423 µM | > 10 µM | > 10 µM |  | CCOc1ccc2cc(C#Cc3ccc(N4CCN(S(=O)(=O)N[C@H](C)C(=O)O)CC4)cc3)ccc2c1 [Compound I-27, (R)-2-{4-[4-(6-ethoxy-naphthalen-2-ylethynyl)-phenyl]-piperazine-1-sulfonylamino)-propionic acid]
18 | 0.138 µM | > 10 µM | > 10 µM |  | CCC[C@H](NS(=O)(=O)N1CCC(c2ccc(C=Cc3ccc4cc(OC)ccc4c3)cc2)CC1)C(=O)O [Compound I-24, (S)-2-(4-{4-[(A)-2-(6-methoxy-naphthalen-2-yl)-vinyl]-phenyl)-piperidine-1-sulfonylamino}-pentanoic acid]
19 | 0.107 µM | 1 to 10 µM | > 10 µM |  | COc1ccc2cc(C#Cc3ccc(N4CCN(S(=O)(=O)N[C@H](C)C(=O)O)C[C@@H]4C)cc3)ccc2c1 [Compound I-53]
